Assay results published in ChEMBL document CHEMBL1201862, “PubChem BioAssay data set” (2004).
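These data come from cells grown in 96-well plates and exposed to compound for 48 hours at five concentrations. GI50 = concentration required for 50% inhibition of growth.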 Activity calls are given as the source filed them. Cut-off read from the data, not from the text of the source: active = GI50 up to about 1.1 µM and inactive = higher.

Legend:
Assay in all cases: NCI anticancer screen, dose series, 48 h
[1] = tested on: 786-0
[2] = tested on: A498
[3] = tested on: A549
[4] = tested on: ACHN
[5] = tested on: BT-549
[6] = tested on: CAKI-1
[7] = tested on: CCRF-CEM
[8] = tested on: COLO 205
[9] = tested on: DU-145
[10] = tested on: EKVX
[11] = tested on: HCC 2998
[12] = tested on: HCT-116
[13] = tested on: HCT-15
[14] = tested on: HL-60
[15] = tested on: HOP-62
[16] = tested on: HOP-92
[17] = tested on: HT-29
[18] = tested on: Hs-578T
[19] = tested on: IGROV-1
[20] = tested on: K562
[21] = tested on: KM12
[22] = tested on: LOX IMVI
[23] = tested on: M14
[24] = tested on: MCF7
[25] = tested on: MDA-MB-435
[26] = tested on: MDA-N
[27] = tested on: MOLT-4
[28] = tested on: Malme-3M
[29] = tested on: NCI-H226
[30] = tested on: NCI-H23
[31] = tested on: NCI-H460
[32] = tested on: NCI-H522
[33] = tested on: NCI/ADR-RES
[34] = tested on: OVCAR-3
[35] = tested on: OVCAR-4
[36] = tested on: OVCAR-5
[37] = tested on: OVCAR-8
[38] = tested on: PC-3
[39] = tested on: RPMI-8226
[40] = tested on: RXF 393
[41] = tested on: SF-268
[42] = tested on: SF-295
[43] = tested on: SF-539
[44] = tested on: SK-MEL-28
[45] = tested on: SK-MEL-2
[46] = tested on: SK-MEL-5
[47] = tested on: SK-OV-3
[48] = tested on: SN12C
[49] = tested on: SNB-19
[50] = tested on: SNB-75
[51] = tested on: SR
[52] = tested on: SW-620
[53] = tested on: T47D
[54] = tested on: TK-10
[55] = tested on: U-251
[56] = tested on: UACC-257
[57] = tested on: UACC-62
[58] = tested on: UO-31
[59] = tested on: MDA-MB-231

## O=C1c2c(Br)sc(Br)c2C(=O)C1(O)O
[1]
  GI50: 34 µM (inactive)
[2]
  GI50: > 100 µM (inactive)
[3]
  GI50: > 100 µM (inactive)
[4]
  GI50: 31.8 µM (inactive)
[5]
  GI50: 19.3 µM (inactive)
[6]
  GI50: 18.6 µM (inactive)
[7]
  GI50: 27.7 µM (inactive)
[8]
  GI50: 23.4 µM (inactive)
[9]
  GI50: > 100 µM (inactive)
[10]
  GI50: 53.6 µM (inactive)
[11]
  GI50: > 100 µM (inactive)
[12]
  GI50: 19.7 µM (inactive)
[13]
  GI50: 27.1 µM
[14]
  GI50: 41 µM (inactive)
[15]
  GI50: > 100 µM (inactive)
[16]
  GI50: 17.9 µM (inactive)
[17]
  GI50: 39.3 µM (inactive)
[18]
  GI50: > 100 µM (inactive)
[19]
  GI50: > 100 µM (inactive)
[20]
  GI50: 27.7 µM (inactive)
[21]
  GI50: > 100 µM (inactive)
[22]
  GI50: > 100 µM (inactive)
[23]
  GI50: 19.2 µM (inactive)
[24]
  GI50: 44.5 µM (inactive)
[25]
  GI50: 19.4 µM (inactive)
[26]
  GI50: 36.8 µM (inactive)
[27]
  GI50: 33.6 µM (inactive)
[28]
  GI50: 19.3 µM (inactive)
[29]
  GI50: > 100 µM (inactive)
[30]
  GI50: 33.4 µM (inactive)
[31]
  GI50: > 100 µM (inactive)
[32]
  GI50: 18.8 µM (inactive)
[33]
  GI50: > 100 µM (inactive)
[34]
  GI50: 19.4 µM (inactive)
[35]
  GI50: 18.3 µM (inactive)
[36]
  GI50: 23.7 µM (inactive)
[37]
  GI50: 35.7 µM (inactive)
[38]
  GI50: 22.8 µM (inactive)
[39]
  GI50: 46.6 µM (inactive)
[40]
  GI50: 19.1 µM (inactive)
[41]
  GI50: > 100 µM (inactive)
[42]
  GI50: > 100 µM (inactive)
[43]
  GI50: 20.8 µM (inactive)
[44]
  GI50: > 100 µM (inactive)
[45]
  GI50: 29.8 µM (inactive)
[46]
  GI50: 19.9 µM (inactive)
[47]
  GI50: > 100 µM (inactive)
[48]
  GI50: 98.9 µM (inactive)
[49]
  GI50: > 100 µM (inactive)
[50]
  GI50: 36.4 µM (inactive)
[51]
  GI50: 24.1 µM (inactive)
[52]
  GI50: 35.6 µM (inactive)
[53]
  GI50: 21.8 µM (inactive)
[54]
  GI50: 72.3 µM (inactive)
[55]
  GI50: 39.7 µM (inactive)
[56]
  GI50: 19.8 µM (inactive)
[57]
  GI50: 76.2 µM (inactive)
[58]
  GI50: 34.2 µM (inactive)

## O=C(N/N=C(COc1ccc([N+](=O)[O-])cc1)\N=C\c1ccncc1)c1ccncc1
[1]
  GI50: > 100 µM (inactive)
[2]
  GI50: > 100 µM (inactive)
[3]
  GI50: > 100 µM (inactive)
[4]
  GI50: > 100 µM (inactive)
[5]
  GI50: > 100 µM (inactive)
[6]
  GI50: > 100 µM (inactive)
[7]
  GI50: > 100 µM (inactive)
[8]
  GI50: > 100 µM (inactive)
[9]
  GI50: > 100 µM (inactive)
[10]
  GI50: > 100 µM (inactive)
[11]
  GI50: > 100 µM (inactive)
[12]
  GI50: > 100 µM (inactive)
[13]
  GI50: > 100 µM
[14]
  GI50: > 100 µM (inactive)
[15]
  GI50: > 100 µM (inactive)
[17]
  GI50: > 100 µM (inactive)
[19]
  GI50: > 100 µM (inactive)
[20]
  GI50: > 100 µM (inactive)
[21]
  GI50: > 100 µM (inactive)
[22]
  GI50: 0.564 µM (active)
[23]
  GI50: > 100 µM (inactive)
[24]
  GI50: > 100 µM (inactive)
[59]
  GI50: > 100 µM (inactive)
[25]
  GI50: > 100 µM (inactive)
[26]
  GI50: > 100 µM (inactive)
[27]
  GI50: > 100 µM (inactive)
[28]
  GI50: > 100 µM (inactive)
[29]
  GI50: > 100 µM (inactive)
[30]
  GI50: > 100 µM (inactive)
[31]
  GI50: > 100 µM (inactive)
[32]
  GI50: > 100 µM (inactive)
[33]
  GI50: > 100 µM (inactive)
[34]
  GI50: > 100 µM (inactive)
[35]
  GI50: > 100 µM (inactive)
[36]
  GI50: > 100 µM (inactive)
[37]
  GI50: 60.1 µM (inactive)
[38]
  GI50: > 100 µM (inactive)
[39]
  GI50: > 100 µM (inactive)
[40]
  GI50: > 100 µM (inactive)
[41]
  GI50: > 100 µM (inactive)
[42]
  GI50: > 100 µM (inactive)
[43]
  GI50: > 100 µM (inactive)
[44]
  GI50: > 100 µM (inactive)
[45]
  GI50: > 100 µM (inactive)
[47]
  GI50: > 100 µM (inactive)
[48]
  GI50: > 100 µM (inactive)
[49]
  GI50: > 100 µM (inactive)
[50]
  GI50: 94.6 µM (inactive)
[52]
  GI50: > 100 µM (inactive)
[53]
  GI50: > 100 µM (inactive)
[54]
  GI50: > 100 µM (inactive)
[55]
  GI50: > 100 µM (inactive)
[56]
  GI50: > 100 µM (inactive)
[57]
  GI50: > 100 µM (inactive)
